The source of these data is PMC6541917 (Journal of medicinal chemistry, 2018).

Series [1] has as its system HIV-1NL4–3. The series can be described thus: antiviral p24 Gag assay in MT-4 cells, wild-type virus. The class given is cell-based. Conditions: Human immunodeficiency virus 1, MT4, read-out: mean IC50 ± SD.
Series [2] has as its system MT-4 cells. Conditions: ratio of CC50 to IC50.
Series [3] can be described thus: in vitro. The note with it: human.
The test system of series [4] is HIV-1NL4–3. As to the kind of experiment: antiviral assay in MT-4 human T-lymphocytes exposed to HIV-1NL4–3. Type of series: cell-based. The note with it: Human immunodeficiency virus 1, MT4, in Homo sapiens, read-out: antiviral IC50.
Series [5] has as its system HIV-1ATV^R5μM. The class given is cell-based. Conditions: HIV-1ATV^R5μM compared to wild-type HIV-1NL4–3.
Series [6] relates to HIV-1APV^R5 μM. The class given is cell-based. The note with it: HIV-1APV^R5 μM compared to wild-type HIV-1NL4–3.
The subject of series [7] is HIV-1LPV^R5μM. The class given is cell-based. Conditions: HIV-1LPV^R5μM compared to wild-type HIV-1NL4–3.
The test system of series [8] is multidrug-resistant HIV-1 variants. As to the kind of experiment: microbe, parasite or virus in culture. The class given is cell-based. Conditions: Human immunodeficiency virus 1, read-out: antiviral IC50, range over variants.

In general, IC50 refers to the concentration at which inhibition is half-maximal.

`CC(C)CN(C[C@@H](O)[C@H](Cc1ccccc1)NC(=O)O[C@H]1CO[C@H]2OCC[C@H]21)S(=O)(=O)c1ccc(N)cc1` [DRV, darunavir, reference compound]: the IC50 in series [1] was determined as 3.5 ± 0.09 nM.
As to `COc1ccc(S(=O)(=O)N(CC(C)C)C[C@@H](O)[C@H](Cc2ccccc2)NC(=O)O[C@@H]2C[C@@H]3NC(=O)O[C@@H]3C2)cc1` [Inhibitor 4a, (3aS,5R,6aR)-2-Oxohexahydro-2H-cyclopenta[d]oxazol-5-yl ((2S,3R)-3-Hydroxy-4-((N-isobutyl-4-methoxyphenyl)-sulfonamido)-1-phenylbutan-2-yl)carbamate], the selectivity index in series [2] is reported as above 2070.
For the compound `COc1ccc(S(=O)(=O)N(CC(C)C)C[C@@H](O)[C@H](Cc2ccccc2)NC(=O)O[C@H]2C[C@H]3OC(=O)N(C)[C@H]3C2)cc1` [Inhibitor 4c, (3aS,5R,6aR)-3-Methyl-2-oxohexahydro-2H-cyclopenta[d]-oxazol-5-yl ((2S,3R)-3-Hydroxy-4-((N-isobutyl-4-methoxyphenyl)sulfonamido)-1-phenylbutan-2-yl)carbamate], the selectivity index in series [2] is given as above 2778. For the same compound, the CC50 in series [3] is above 100000 nM.
`COc1ccc(S(=O)(=O)N(CC(C)C)C[C@@H](O)[C@H](Cc2ccccc2)NC(=O)O[C@@H]2C[C@@H]3OC(=O)N(C)[C@@H]3C2)cc1` [Inhibitor 4d, (3aR,5S,6aS)-3-Methyl-2-oxohexahydro-2H-cyclopenta[d]-oxazol-5-yl ((2S,3R)-3-Hydroxy-4-((N-isobutyl-4-methoxyphenyl)sulfonamido)-1-phenylbutan-2-yl)carbamate]: the selectivity index in series [2] is above 229.
Consider `C=C(C)CN1C(=O)O[C@@H]2C[C@H](OC(=O)N[C@@H](Cc3ccccc3)[C@H](O)CN(CC(C)C)S(=O)(=O)c3ccc(OC)cc3)C[C@@H]21` [Inhibitor 4k, (3aS,5R,6aR)-3-(2-Methylallyl)-2-oxohexahydro-2H-cyclopenta[d]oxazol-5-yl ((2S,3R)-3-Hydroxy-4-((N-isobutyl-4-methoxyphenyl)sulfonamido)-1-phenylbutan-2-yl)carbamate], for which the IC50 was found to be 31 nM in series [4] and 23 ± 0.1 nM in series [1]. In addition, the results for the “IC50 fold-change (in parentheses)” value in series [5] and in series [6] were 1 and 11, respectively. Besides, the selectivity index in series [2] is given as above 3226.
Consider `COc1ccc(S(=O)(=O)N(CC(C)C)C[C@@H](O)[C@H](Cc2ccccc2)NC(=O)O[C@H]2C[C@H]3OC(=O)N(CC(C)C)[C@H]3C2)cc1` [Inhibitor 4l, (3aS,5R,6aR)-3-Isobutyl-2-oxohexahydro-2H-cyclopenta[d]-oxazol-5-yl ((2S,3R)-3-Hydroxy-4-((N-isobutyl-4-methoxyphenyl)sulfonamido)-1-phenylbutan-2-yl)carbamate], for which the entries for the “IC50 fold-change (in parentheses)” value in series [5], in series [7] and in series [6] were 1, 15 and 7, respectively. The IC50 in series [8] was in the range of 33 to 615 nM. Moreover, in series [2], the selectivity index is reported as above 2439.
